Reference: PMC11024192, “Dissolution and antioxidant potential of apigenin self nanoemulsifying drug delivery system (SNEDDS) for oral delivery” (Scientific Reports, 2024)
Values joined by “and” are separate entries in the source; they are usually repeats but may differ in a detail not shown here. Equal entries are not always repeated.

Tests used:
[1] = Solubility of apigenin in oils, surfactants and cosurfactants (excess drug, shaking water bath, HPLC); format: physicochemical; settings: 48 h, mean ± SD, n = 3
From the text: To formulate the SNEDDS, the selection of suitable oils, surfactants, and cosurfactants is important to enhance the solubility of actives and the loading efficiency. The components used in SNEDDS should maximize drug solubility and have good miscibility with each other to obtain a stable formulation. Therefore, the solubility of apigenin was firstly determined in the oils (Gelucire 44/14, Myritol 318, sunflower oil, and corn oil), surfactants (PEG-40 hydrogenated castor oil, Tween 20, Tween 80, Span 20, and Span 80), and cosurfactants (PEG 400 and Transcutol HP). Briefly, an excess amount of apigenin was weighed into 0.5 g of each excipient. The obtained mixtures were mixed using a vortex mixer and kept in a shaking water bath at 100 rpm and 37 ± 2 °C for 48 h. After equilibrium was achieved, the equilibrated sample was centrifuged at 8000 rpm for 20 min. The excess undissolved apigenin was discarded, and the supernatant was collected. The concentration of apigenin was analyzed by the high-performance liquid chromatography (HPLC). The experiments were performed in triplicate. The excipient in which apigenin was the most soluble was selected to form the pseudoternary phase diagram. The amount of apigenin was quantified by a validated reversed-phase HPLC (RP-HPLC) equipped with a UV/VIS detector (SHIMADZU Series 20AD, Japan). Apigenin was separated on a C18 column (Promosil C18, 4.5 × 250 mm, 5 µm) using methanol, acetonitrile, acetic acid, orthophosphoric acid, and water at a ratio of 40:20:0.05:0.05:40 by volume as the mobile phase at a flow rate of 0.6 mL/min with a detection wavelength of 352 nm. The column temperature was set to 30 °C. The standard curve of apigenin was linear in the concentration range of 0.05–40 µg/mL. Good linearity with a coefficient of determination (R^2) > 0.999 was achieved. The relative standard deviation (%RSD) of intraday and interday precision of the assay method for apigenin was below 6%, and the accuracy was within the range of 95–105%. The limit of quantification and limit of detection were 0.64 and 0.21 µg/mL, respectively.

[2] = In vitro dissolution profile (apparatus type II, HPMC capsules) and release kinetics fitting; format: physicochemical; settings: 37 °C, 100 rpm, 5 mg apigenin in HPMC capsule
Experimental: The apigenin-loaded SNEDDS formulations GTP2575 and GTP3070 were selected for evaluating the in vitro dissolution because both formulations offered nearly 100% transmittance, an appropriate size with a narrow size distribution, a quick self-emulsification time, and great drug loading and encapsulation efficiency. […] Therefore, formulations GTP2575 and GTP3070 were preferred for in vitro dissolution study.
Dissolution was performed by a dissolution apparatus type II (a paddle) (Vision G2 Elite 8, Hanson, CA, USA). The SNEDDS formulations GTP2575 and GTP3070 containing 5 mg of apigenin were added to HPMC capsules number 00. An equivalent 5 mg of apigenin coarse powder added to HPMC capsules using lactose monohydrate as the filler was the control. Each capsule was placed inside a sinker loaded with 900 mL of dissolution media (buffer solutions pH 1.2, 4.5, and 6.8) at 37.0 ± 0.5 °C with a rotating speed of 100 rpm. During the study, 5 mL of dissolution medium was removed at predetermined time intervals (10, 15, 20, 30, 45, 60, 90, and 120 min), and 5 mL of fresh buffer solution was replaced. The amount of apigenin dissolved in the dissolution media was determined by HPLC. The dissolution experiment was carried out in triplicate. The dissolution profile was plotted with the percent apigenin dissolved on the y-axis and time on the x-axis. The dissolution profiles of GTP2575, GTP3070, and the coarse powder in the dissolution media buffer pH 1.2, 4.5, and 6.8 were compared. The dissolution results of the SNEDDS formulations GTP2575 and GTP3070 in pH 1.2 buffer solution were fitted by determining the R^2 with various kinetic models such as zero-order (a constant release rate independent of the drug remaining), first-order (an exponential decay of the drug remaining), Higuchi (matrix systems where drug release is controlled by diffusion), Hixon–Crowell (release based on the change in the cube root of the drug remaining), and Korsmeyer–Peppas (an extension of the […] model that incorporates a release exponent). […]

[3] = test system: Caco-2 cells; test: Intracellular (cellular) antioxidant activity (CAA) assay, DCFH-DA/AAPH; format: cell-based; settings: apigenin 7 μg/mL final, ascorbic acid 0.01%w/v, mean ± SD; for AUC (area under the DCF fluorescence response curve over time): 1 h incubation, 600 µM AAPH; for CAA unit (%reduction): vs non-antioxidant treated control
From the text: The quantitative cellular antioxidant activity (CAA) assay is a useful method employed for determining the bioavailability of food antioxidants because it can account for several additional factors, such as cellular uptake and metabolism. The CAA assay uses a fluorescent probe (DCFH-DA) to monitor the inhibition of peroxyl radical-induced oxidation inside the cell. The ester form (DCFH-DA) is nonionic and nonpolar and can be transported across the cell membrane. Inside the cell, DCFH-DA is deacetylated by endogenous cellular esterase and left in its oxidizable DCFH form. Once the free radical generator AAPH is added to the system, peroxyl radicals begin to form. The addition of antioxidants that can enter the cell can compete with and quench the radicals, preventing DCFH from being oxidized to form DCF (fluorescent). The CAA unit takes into account the relative areas under the curves of the samples compared to the control. Caco-2 cells, intestinal barrier models, are an appropriate model for assessing the antioxidant activity, especially for the phenolic compound[21] being used in this study.
The quantitative CAA of SNEDDS formulations GTP2575 and GTP3070 was evaluated in Caco-2 cells modified from the study of Kellett et al.[21]. Caco-2 cells were cultured in advanced DMEM supplemented with 10% endotoxin-free, heat-inactivated FBS, 1% L-glutamine, 1% penicillin (10,000 U/mL), and 1% streptomycin (10,000 μg/mL). Each test sample of SNEDDS was prepared by diluting with serum-free culture media to obtain an equivalent concentration of apigenin (14 µg/mL). The working solution (25 μM DCFH-DA in serum-free culture media) was prepared from a 12.5 mM DCFH-DA stock solution in MeOH. A 600 μM AAPH solution was prepared from a 60 mM AAPH stock solution in HBSS before experimental use. After Caco-2 cells reached confluence in a T-25 culture flask, the cells were washed twice with sterile PBS (pH 7.4) and dissociated from the surface using trypsin–EDTA. The cells were seeded in 96-well, black, flat-bottom tissue culture-treated dishes (Corning Costar, ME, USA). A density of 60,000 cells in 100 µL of culture media was added to each well and incubated until they reached confluency (24 h). The growth medium was removed after confluence was achieved, and the cells were then washed with PBS to remove any nonadherent and dead cells.
At the time of the experiment, 50 µL of 25 μM DCFH-DA working solution was added to each well, followed by 50 µL of a test sample. As a result, the final concentration of apigenin of 7 μg/mL in each well was obtained. As a control, 50 µL of DCFH-DA working solution and serum-free culture media (no sample included) were utilized. Once the DCFH-DA and test samples were added, the cells were placed in the incubator for 1 h at 37 °C. After 1 h, the cells were washed with PBS 3 times to ensure that any antioxidant effect observed later in the assay was due only to the compounds internalized by the cells. […] The cells were then immediately placed in a BMG CLARIOstar (BMG LABTECH, NC, USA), where real-time fluorescence was measured initially and every five minutes for 1 h (a total of 13 readings were taken). The fluorescence was measured at an excitation wavelength of 485 nm and an emission wavelength of 538 nm. The antioxidant activity of test samples was quantified by evaluating the percent reduction in fluorescence. […] The percent reduction, or the CAA unit, was calculated using Eq. (3). The samples were evaluated in triplicate and reported as the mean ± SD. […]

[4] = design: method as in PMID 34084146; settings: cited from earlier work

Solubility at 37 °C ([1]; in Myritol 318 (oil)) [mg/g]	Solubility at 37 °C ([1]; in PEG 400 (cosurfactant)) [mg/g]	Solubility at 37 °C ([1]; in PEG-40 hydrogenated castor oil (surfactant)) [mg/g]	Solubility at 37 °C ([1]; in Span 20 (surfactant)) [mg/g]	Solubility at 37 °C ([1]; in Span 80 (surfactant)) [mg/g]	Solubility at 37 °C ([1]; in Transcutol HP (cosurfactant)) [mg/g]	Solubility at 37 °C ([1]; in Tween 20 (surfactant)) [mg/g]	Solubility at 37 °C ([1]; in Tween 80 (surfactant)) [mg/g]	Solubility at 37 °C ([1]; in corn oil) [mg/g]	Solubility at 37 °C ([1]; in sunflower oil) [mg/g]	percent apigenin dissolved at 120 min ([2]; buffer pH 1.2, 900 mL) [%]	percent apigenin dissolved at 120 min ([2]; buffer pH 4.5, 900 mL) [%]	percent apigenin dissolved at 120 min ([2]; buffer pH 6.8, 900 mL) [%]	SMILES	Solubility at 37 °C ([1]; in Gelucire 44/14 (oil))	AUC (area under the DCF fluorescence response curve over time) ([3]; n = 3)	CAA unit (%reduction) ([3]; n = 3, listed as Apigenin coarse powder) [%]	CAA unit (%reduction) ([3]; n = 3, listed as apigenin coarse powder)	Biopharmaceutical classification system (BCS) class [4]	Solubility in water [4]	CAA unit (%reduction) ([3]; n = 3) [%]
0.0003 ± 0.0000	27.6349 ± 0.9833	11.3645 ± 0.2659	0.0013 ± 0.0000	0.0007 ± 0.0001	20.9544 ± 0.8715	20.9996 ± 1.1273	22.5921 ± 0.0290	0.0003 ± 0.0000	0.0004 ± 0.0000	5	2	2	O=c1cc(-c2ccc(O)cc2)oc2cc(O)cc(O)c12 [apigenin]	7.77 ± 0.63 mg/g and 7.7686 ± 0.6332 mg/g	9,951,772 ± 1,061,408	12.70 ± 5.14	12.70% and 12.70 ± 5.14%	Class II	insoluble	–
–	–	–	–	–	–	–	–	–	–	–	–	–	O=C1O[C@H]([C@@H](O)CO)C(O)=C1O [ascorbic acid]	–	8,959,896 ± 1,441,639	–	–	–	–	21.61 ± 7.41
